19 compounds from ChEMBL document CHEMBL3397029, “Development of potent dopamine-norepinephrine uptake inhibitors (DNRIs) based on a (2S,4R,5R)-2-benzhydryl-5-((4-methoxybenzyl)amino)tetrahydro-2H-pyran-4-ol molecular template” (Bioorg Med Chem, 2015) can be followed below.

SMILES strings stand for the structures.

The target in assay [1] is Norepinephrine transporter (Rattus norvegicus, UniProt Q9WTR4). As to the kind of experiment: Inhibition of [ring 2,5,6-3H]dopamine reuptake in rat cerebral cortex NET. Format: tissue-based.
Assay [2] concerns the target Sodium-dependent serotonin transporter (Rattus norvegicus, UniProt P31652). As to the kind of experiment: Inhibition of [1,2-3H]serotonin reuptake in rat cerebral cortex SERT. Format: tissue-based.
The species entered for assay [3] is Rattus norvegicus. Description: Selectivity ratio of Ki for rat cerebral cortex NET to Ki for rat cerebral cortex SERT.
In assay [4] the target is Sodium-dependent serotonin transporter (Rattus norvegicus) (UniProt P31652). As to the kind of experiment: Ratio of fluoxetine Ki to compound Ki for rat cerebral cortex SERT. Format: tissue-based.
The species named for assay [5] is Rattus norvegicus. As to the kind of experiment: Selectivity ratio of Ki for rat striatum DAT to Ki for rat cerebral cortex SERT. Format: tissue-based.
Assay [6] concerns the target Sodium-dependent dopamine transporter (Rattus norvegicus, UniProt P23977). Description: Inhibition of [ring 2,5,6-3H]dopamine reuptake in rat striatum DAT. Format: tissue-based.

Chain of Sodium-dependent dopamine transporter (P23977 whole entry): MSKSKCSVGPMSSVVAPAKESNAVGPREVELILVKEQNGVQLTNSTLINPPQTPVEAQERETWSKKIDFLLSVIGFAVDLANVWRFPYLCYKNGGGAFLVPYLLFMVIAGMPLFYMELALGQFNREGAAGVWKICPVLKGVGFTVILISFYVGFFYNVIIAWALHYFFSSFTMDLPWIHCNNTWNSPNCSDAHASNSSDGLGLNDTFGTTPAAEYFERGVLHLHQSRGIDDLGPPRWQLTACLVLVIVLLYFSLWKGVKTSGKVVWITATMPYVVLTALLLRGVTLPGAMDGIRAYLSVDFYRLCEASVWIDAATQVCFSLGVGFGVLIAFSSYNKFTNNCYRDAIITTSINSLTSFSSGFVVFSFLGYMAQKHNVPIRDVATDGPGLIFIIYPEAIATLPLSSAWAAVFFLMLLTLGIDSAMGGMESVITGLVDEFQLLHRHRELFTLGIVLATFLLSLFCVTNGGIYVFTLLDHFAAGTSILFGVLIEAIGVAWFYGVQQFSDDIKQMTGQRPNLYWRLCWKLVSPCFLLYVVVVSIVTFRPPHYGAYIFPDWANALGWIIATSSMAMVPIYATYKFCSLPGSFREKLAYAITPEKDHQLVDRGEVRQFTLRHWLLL
Chain of Sodium-dependent serotonin transporter (P31652 whole entry): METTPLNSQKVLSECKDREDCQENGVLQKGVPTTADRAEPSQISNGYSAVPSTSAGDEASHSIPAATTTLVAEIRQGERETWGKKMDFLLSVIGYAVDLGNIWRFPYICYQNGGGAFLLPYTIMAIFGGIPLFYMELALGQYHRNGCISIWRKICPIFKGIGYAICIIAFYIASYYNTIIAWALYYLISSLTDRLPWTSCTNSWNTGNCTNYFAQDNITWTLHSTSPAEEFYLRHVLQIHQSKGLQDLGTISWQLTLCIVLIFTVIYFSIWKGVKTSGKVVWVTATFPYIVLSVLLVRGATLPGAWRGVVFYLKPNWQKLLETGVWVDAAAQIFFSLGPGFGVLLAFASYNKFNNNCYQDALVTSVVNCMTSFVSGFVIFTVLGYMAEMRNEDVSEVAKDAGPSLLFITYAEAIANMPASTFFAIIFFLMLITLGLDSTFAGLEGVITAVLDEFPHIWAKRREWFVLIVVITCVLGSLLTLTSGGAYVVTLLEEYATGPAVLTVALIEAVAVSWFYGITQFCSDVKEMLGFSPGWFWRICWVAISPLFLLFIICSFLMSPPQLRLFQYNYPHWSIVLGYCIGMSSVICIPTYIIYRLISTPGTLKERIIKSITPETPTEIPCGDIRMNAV
Chain of Norepinephrine transporter (Q9WTR4 whole entry): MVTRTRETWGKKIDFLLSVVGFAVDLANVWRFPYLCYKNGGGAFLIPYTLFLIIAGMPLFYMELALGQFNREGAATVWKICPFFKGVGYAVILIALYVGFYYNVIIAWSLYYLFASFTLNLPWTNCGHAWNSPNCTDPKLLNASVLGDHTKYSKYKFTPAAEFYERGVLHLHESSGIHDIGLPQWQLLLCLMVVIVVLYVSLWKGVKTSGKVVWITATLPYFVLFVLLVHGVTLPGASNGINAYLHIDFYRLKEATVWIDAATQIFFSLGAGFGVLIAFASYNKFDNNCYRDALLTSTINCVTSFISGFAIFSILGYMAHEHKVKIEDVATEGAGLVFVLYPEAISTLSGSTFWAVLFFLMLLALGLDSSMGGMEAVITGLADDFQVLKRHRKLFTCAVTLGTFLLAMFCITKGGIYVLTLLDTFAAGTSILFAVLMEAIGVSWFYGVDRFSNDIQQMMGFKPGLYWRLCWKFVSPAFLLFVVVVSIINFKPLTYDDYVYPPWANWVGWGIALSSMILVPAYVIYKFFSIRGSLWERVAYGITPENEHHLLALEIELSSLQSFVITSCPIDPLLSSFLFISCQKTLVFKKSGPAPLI
Chain of Sodium-dependent serotonin transporter (Rattus norvegicus) (P31652 whole entry): as the sequence (P31652 whole entry) above

As to `COc1cc(CN[C@@H]2CO[C@H](C(c3ccccc3)c3ccccc3)C[C@H]2O)ccc1O`, the results for the Ki in assay [1] and in assay [2] were 33.7 nM and 223 nM, respectively.

Take `c1ccc(C(c2ccccc2)[C@@H]2CC[C@H](NCc3ccc4occc4c3)CO2)cc1`: the figures for the Ratio Ki (in the assay filed under Rattus norvegicus [3]; in assay [4]; in the assay filed under Rattus norvegicus [5]) were 35, 20 and 115, respectively. In addition, the Ki (usually a dissociation constant, usually derived from enzyme kinetics or from competition with a known ligand) in assay [1] came out at 25.2 nM.

In turn, `COc1ccc(CN[C@@H]2CO[C@H](C(c3ccc(F)cc3)c3ccc(F)cc3)C[C@H]2O)cn1` returned a Ki in assay [1] of 28.4 nM.

As to `COc1cc(O)cc(CN[C@@H]2CO[C@H](C(c3ccccc3)c3ccccc3)C[C@H]2O)c1`, the Ki in assay [1] worked out at 44.2 nM.

Take `COc1cc(CN[C@@H]2CO[C@H](C(c3ccc(F)cc3)c3ccc(F)cc3)C[C@H]2O)ccc1O`: in assay [1], the Ki was found to be 4.76 nM.

The compound `O[C@@H]1C[C@@H](C(c2ccccc2)c2ccccc2)OC[C@H]1NCc1ccc2occc2c1` registered a Ki in assay [1] of 33.6 nM.

The compound `O[C@@H]1C[C@@H](C(c2ccc(F)cc2)c2ccc(F)cc2)OC[C@H]1NCc1ccc2c(c1)CCO2` showed a Ki in assay [1] of 25.8 nM. This Ki and that of the compound before are within 1.5-fold of each other.

With `Oc1ccc(CN[C@@H]2CO[C@H](C(c3ccc(F)cc3)c3ccc(F)cc3)C[C@H]2O)cc1F`, the Ki is 13.1 nM in assay [6] and 7.37 nM in assay [1].

On to `COc1ccc(CN[C@@H]2CO[C@H](C(c3ccccc3)c3ccccc3)C[C@H]2O)cc1F`, for which the figures for the Ki in assay [6], in assay [1] and in assay [2] were 48.2 nM, 41.6 nM and 9.02 nM, respectively.

The compound `COc1cc(O)cc(CN[C@@H]2CO[C@H](C(c3ccc(F)cc3)c3ccc(F)cc3)C[C@H]2O)c1` came in with a Ki in assay [1] of 4.91 nM.

On to `O[C@@H]1C[C@@H](C(c2ccc(F)cc2)c2ccc(F)cc2)OC[C@H]1NCc1ccc2occc2c1`, for which the Ki in assay [1] amounted to 26.5 nM.

Take `COc1ccc(CN[C@@H]2CO[C@H](C(c3ccccc3)c3ccccc3)C[C@H]2O)c(F)c1`: the Ki in assay [6] was 51.8 nM; in assay [1] it was 9.33 nM; in assay [2], 64 nM.

In turn, `COc1cccc(CN[C@@H]2CO[C@H](C(c3ccc(F)cc3)c3ccc(F)cc3)C[C@H]2O)c1` came in with a Ki in assay [1] of 28.8 nM.

`Oc1ccc(CN[C@H]2CC[C@@H](C(c3ccc(F)cc3)c3ccc(F)cc3)OC2)cc1`: the Ki in assay [1] was 13.4 nM; in assay [2], 334 nM.

`COc1ccc(CN[C@@H]2CO[C@H](C(c3ccccc3)c3ccccc3)C[C@H]2O)cc1O` returned a Ki in assay [1] of 30.2 nM.

For `O[C@@H]1C[C@@H](C(c2ccc(F)cc2)c2ccc(F)cc2)OC[C@H]1NCc1ccc2c(c1)OCO2`, the Ki came out at 10.2 nM in assay [1] and 400 nM in assay [2].

As to `Oc1cc(O)cc(CN[C@@H]2CO[C@H](C(c3ccccc3)c3ccccc3)C[C@H]2O)c1`, the Ki in assay [1] came out at 152 nM.

Turning to `COc1ccc(CN[C@@H]2CO[C@H](C(c3ccccc3)c3ccccc3)C[C@H]2O)cn1`, the results for the Ki in assay [6], in assay [1] and in assay [2] were 44.1 nM, 38.1 nM and 42.2 nM, respectively.

For `COc1cccc(CN[C@@H]2CO[C@H](C(c3ccccc3)c3ccccc3)C[C@H]2O)c1`, in assay [1], the affinity corresponds to a Ki of 5.85 nM. This counts as single-digit nanomolar.
